# Experiments:
# cornea = settings: reported; eye drop; cited from earlier work
# [1] = test system: Aspergillus niger IFO 6431; assay: Minimum development inhibiting concentration (MIC) against fungi; assay type: cell-based; settings: A. niger; spore solution, 27° C. 1 week
# Description: (§1) A sample fungus which had been pre-cultured was diluted with a wetting agent-containing sterilized water according to an ordinary broth dilution method to prepare a spore solution. 1 ml of the spore solution was then mixed with 1 ml of each of chemical solutions having concentrations which vary stepwise. The mixture was then cultured at a temperature of 27° C. in an incubator for 1 week. The culture was then examined for turbidity to see if the proliferation of fungus occurred. The minimum concentration at which no turbidity occurs was defined to be MIC.
# (§2) Aspergillus niger IFO 6431 (A. niger) and Candida albicans ATCC10231 (C. albicans) were used as sample microorganisms.
# [2] = test system: Candida albicans ATCC10231; assay: as above; assay type: cell-based; settings: C. albicans; spore solution, 27° C. 1 week
# Description: as §1, §2
# [3] = test system: Pseudomonas aeruginosa ATCC27583; assay: MIC by agar plate dilution method; assay type: cell-based; settings: P. aeruginosa, 37° C. 24 hours
# Description: (§3) MIC value was determined by an agar plate dilution method according to the Law of Japanese Society of Chemotherapy. In some detail, a bacteria solution in stationary state which had been adjusted with a nutrient broth such that the concentration of bacterial suspension reached 10^6 cell/ml was added to agar culture media containing chemical solutions having concentrations which vary in two stages where it was then allowed to stand at a temperature of 37° C. for 24 hours for culture. The bacteria solution was then examined to see if the proliferation of bacteria occurred. Thus, MIC was determined.
# (§4) The following three kinds of bacteria were used as sample bacteria:
# Pseudomonas aeruginosa ATCC27583 (P. auruginosa); and […]
# [4] = test system: Staphylococcus aureus IFO 12732; assay: MIC by agar plate dilution method; assay type: cell-based; settings: S. aureus, 37° C. 24 hours
# Description: as §3, §4
# Staphylococcus aureus IFO 12732 (S. aureus)
# [5] = test system: Escherichia coli K12 W 3110; assay: MIC by agar plate dilution method; assay type: cell-based; settings: E. coli, 37° C. 24 hours
# Description: as §3, §4
# Escherichia coliK12 W 3110 (E. coli);
# rat = assay: Oral toxicity test on rat (LD50); assay type: in vivo
# Description: The quaternary ammonium salt of the invention is a compound having an extremely high safety, i.e., LD50 (rat) of not smaller than 2,000 mg/kg in oral toxicity test on rat.
# The sample 4BAMP-6C thus obtained was then determined for oral toxicity (LD50: rat). The results were greater than 2,000 mg/kg.
Substance,amount incorporated at which the cornea is damaged (cornea) [%],MIC [1] [ppm],MIC [2] [ppm],MIC [3] [ppm],MIC [4] [ppm],MIC [5] [ppm],oral toxicity LD50 (rat)
benzalkonium chloride [reference compound],≥ 0.01,32,16,8,16,32,–
"1,4-bis(N,N-dihexyl-N-methylammoniomethyl)phenylene dichloride [Example 4BAMP-6C]",–,16,4,<2,<2,8,"greater than 2,000 mg/kg"
